Laboratory results: patent publication US11566057B2, “Long-acting co-agonists of the glucagon and GLP-1 receptors” (Merck Sharp & Dohme Corp., priority 2017, dated 2023)
Read-outs that look alike come from different tables or passages of the source. Numbered stars: 1 amine (or outer) side, 2 acyl side, 3 side chain; on linkers, the order of the positions; unused ones are H or OH. Square brackets hold non-standard residues; d marks the D form. Side chains are listed from the residue outwards. Peptide text beside a SMILES is read from it. * marks the point of attachment. C18 diacid = O=C(O)CCCCCCCCCCCCCCCCC(=O)*; C16 diacid = O=C(O)CCCCCCCCCCCCCCC(=O)*; γGlu = O=C(O)[C@H](CCC(=O)[*:2])N[*:1]; Met(O2) = CS(=O)(=O)CC[C@H](N)C(=O)O; αMeD = C[C@](N)(CC(=O)O)C(=O)O; AEEA = NCCOCCOCC(=O)O; Aib = CC(C)(N)C(=O)O

Experiments:
human GCGR = molecular target: T1, human GCGR (Homo sapiens, UniProt P47871); experiment: cAMP activity assay at the Glucagon receptor (GCGR); assay type: cell-based; details: for hGCGR/hGLP1R (hTone): ratio of GCGR EC50 to GLP1R EC50
T1 construct: expressed in transfected cells; growth medium holds Blasticidin and Hygromycin
In short: (§1)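 Peptides serially diluted from DMSO (10 points) and added to frozen-stock cells bearing human GLP1R (10,000 cells/well) or GCGR (30,000 cells/well), 1 h at RT, dark. EC50 by four-parameter logistic fit of HitHunter cAMPXS luminescence, read following overnight RT incubation.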

human GLP1R = molecular target: T2, human GLP1R (Homo sapiens, UniProt P43220); experiment: cAMP activity assay at the GLP-1 receptor (GLP1R); assay type: cell-based; details: summary statement: EC50 at each of the glucagon and GLP-1 receptors; read-out: EC50 at the GLP-1 receptor
T2 construct: expressed in transfected cells; growth medium holds Blasticidin and Hygromycin
In short: as §1

[1] = summary statement: EC50 at each of the glucagon and GLP-1 receptors, read-out: EC50 at the glucagon receptor
[2] = cells expressing human GCGR, cAMP production, buffer with or without 20% human serum (not stated which), read-out: GCGR EC50 human

T1 sequence (P47871 26-477): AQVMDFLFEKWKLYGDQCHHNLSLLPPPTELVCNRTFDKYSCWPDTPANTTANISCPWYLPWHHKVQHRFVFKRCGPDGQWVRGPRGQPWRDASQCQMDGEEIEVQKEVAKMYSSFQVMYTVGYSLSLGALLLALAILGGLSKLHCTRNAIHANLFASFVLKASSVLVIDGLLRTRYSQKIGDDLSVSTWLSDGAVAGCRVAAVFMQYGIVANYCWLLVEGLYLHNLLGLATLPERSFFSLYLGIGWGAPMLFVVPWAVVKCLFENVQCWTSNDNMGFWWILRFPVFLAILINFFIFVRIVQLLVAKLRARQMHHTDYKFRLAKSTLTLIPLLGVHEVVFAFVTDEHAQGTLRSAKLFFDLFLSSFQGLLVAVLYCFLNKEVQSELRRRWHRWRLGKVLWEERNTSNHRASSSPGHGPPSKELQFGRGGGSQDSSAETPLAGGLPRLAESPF
T2 sequence (P43220 24-463): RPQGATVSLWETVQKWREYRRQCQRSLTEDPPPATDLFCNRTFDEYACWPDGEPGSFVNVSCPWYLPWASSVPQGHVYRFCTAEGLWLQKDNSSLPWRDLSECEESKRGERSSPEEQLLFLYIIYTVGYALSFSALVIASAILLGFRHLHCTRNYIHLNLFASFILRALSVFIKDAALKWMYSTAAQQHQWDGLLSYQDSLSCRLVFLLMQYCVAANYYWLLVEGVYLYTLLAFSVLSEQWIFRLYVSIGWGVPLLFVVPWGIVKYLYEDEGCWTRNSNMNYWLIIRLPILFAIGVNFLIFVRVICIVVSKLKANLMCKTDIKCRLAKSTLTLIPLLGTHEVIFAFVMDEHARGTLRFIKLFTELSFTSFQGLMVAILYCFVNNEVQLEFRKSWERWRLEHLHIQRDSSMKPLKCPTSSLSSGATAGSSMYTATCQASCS

| Structure (SMILES) | hGCGR/hGLP1R (hTone) (human GCGR) | EC50 (human GCGR; [1]) [nM] | EC50 (human GLP1R) [nM] | EC50 (human GCGR; [2]) [nM] |
| --- | --- | --- | --- | --- |
| CC(C)C[C@H](NC(=O)[C@H](Cc1ccc(O)cc1)NC(=O)[C@H](CCCCN)NC(=O)[C@H](CO)NC(=O)[C@H](Cc1ccc(O)cc1)NC(=O)[C@H](CC(=O)O)NC(=O)[C@H](CO)NC(=O)[C@@H](NC(=O)[C@H](Cc1ccccc1)NC(=O)[C@@H](NC(=O)CNC(=O)[C@H](CCC(N)=O)NC(=O)C(C)(C)NC(=O)[C@@H](N)Cc1c[nH]cn1)[C@@H](C)O)[C@@H](C)O)C(=O)N[C@@H](CC(=O)O)C(=O)N[C@@H](C)C(=O)N[C@@H](CCCNC(=N)N)C(=O)N[C@@H](C)C(=O)N[C@@H](C)C(=O)N[C@@H](CCC(N)=O)C(=O)N[C@@H](CCCCNC(=O)COCCOCCNC(=O)COCCOCCNC(=O)CC[C@H](NC(=O)CCCCCCCCCCCCCCCCC(=O)O)C(=O)O)C(=O)N[C@@H](Cc1ccccc1)C(=O)N[C@H](C(=O)N[C@@H](CCC(N)=O)C(=O)N[C@@H](Cc1c[nH]c2ccccc12)C(=O)N[C@@H](CC(C)C)C(=O)N[C@@H](CCS(C)(=O)=O)C(=O)N[C@@](C)(CC(=O)O)C(=O)N[C@H](C(N)=O)[C@@H](C)O)C(C)C [TP681] (H-H[Aib]QGTFTSDYSKYLDARAAQK([AEEA-AEEA-γGlu-C18 diacid])FVQWL[Met(O2)][αMeD]T-NH2; N-terminus assumed) | 1.8 | < 5 | < 5 | 0.27 |
| CC(C)C[C@H](NC(=O)[C@H](Cc1ccc(O)cc1)NC(=O)[C@H](CCCCN)NC(=O)[C@H](CO)NC(=O)[C@H](Cc1ccc(O)cc1)NC(=O)[C@H](CC(=O)O)NC(=O)[C@H](CO)NC(=O)[C@@H](NC(=O)[C@H](Cc1ccccc1)NC(=O)[C@@H](NC(=O)CNC(=O)[C@H](CCC(N)=O)NC(=O)C(C)(C)NC(=O)[C@@H](N)Cc1c[nH]cn1)[C@@H](C)O)[C@@H](C)O)C(=O)N[C@@H](CC(=O)O)C(=O)N[C@@H](C)C(=O)N[C@@H](CCCNC(=N)N)C(=O)N[C@@H](C)C(=O)N[C@@H](C)C(=O)N[C@@H](CCC(N)=O)C(=O)N[C@@H](CC(=O)O)C(=O)N[C@@H](Cc1ccccc1)C(=O)N[C@H](C(=O)N[C@@H](CCCCNC(=O)COCCOCCNC(=O)CC[C@H](NC(=O)CCCCCCCCCCCCCCCCC(=O)O)C(=O)O)C(=O)N[C@@H](Cc1c[nH]c2ccccc12)C(=O)N[C@@H](CC(C)C)C(=O)N[C@@H](CCS(C)(=O)=O)C(=O)N[C@@H](CC(=O)O)C(=O)N[C@H](C(N)=O)[C@@H](C)O)C(C)C [TP637] (H-H[Aib]QGTFTSDYSKYLDARAAQDFVK([AEEA-γGlu-C18 diacid])WL[Met(O2)]DT-NH2; N-terminus assumed) | 1.8 | < 5 | < 5 |  |
| CC(C)C[C@H](NC(=O)[C@H](Cc1ccc(O)cc1)NC(=O)[C@H](CCCCN)NC(=O)[C@H](CO)NC(=O)[C@H](Cc1ccc(O)cc1)NC(=O)[C@H](CC(=O)O)NC(=O)[C@H](CO)NC(=O)[C@@H](NC(=O)[C@H](Cc1ccccc1)NC(=O)[C@@H](NC(=O)CNC(=O)[C@H](CCC(N)=O)NC(=O)C(C)(C)NC(=O)[C@@H](N)Cc1c[nH]cn1)[C@@H](C)O)[C@@H](C)O)C(=O)N[C@@H](CC(=O)O)C(=O)N[C@@H](C)C(=O)N[C@@H](CCCNC(=N)N)C(=O)N[C@@H](C)C(=O)N[C@@H](C)C(=O)N[C@@H](CCCCNC(=O)COCCOCCNC(=O)CC[C@H](NC(=O)CCCCCCCCCCCCCCC(=O)O)C(=O)O)C(=O)N[C@@H](CC(=O)O)C(=O)N[C@@H](Cc1ccccc1)C(=O)N[C@H](C(=O)N[C@@H](CCC(N)=O)C(=O)N[C@@H](Cc1c[nH]c2ccccc12)C(=O)N[C@@H](CC(C)C)C(=O)N[C@@H](CCS(C)(=O)=O)C(=O)N[C@@](C)(CC(=O)O)C(=O)N[C@H](C(N)=O)[C@@H](C)O)C(C)C [TP627] (H-H[Aib]QGTFTSDYSKYLDARAAK([AEEA-γGlu-C16 diacid])DFVQWL[Met(O2)][αMeD]T-NH2; N-terminus assumed) | 0.6 | < 5 | < 5 | 0.14 |

Continued, values first:

| hGCGR/hGLP1R (hTone) (human GCGR) | EC50 (human GCGR; [1]) [nM] | EC50 (human GLP1R) [nM] | EC50 (human GCGR; [2]) [nM] | Structure (SMILES) |
| --- | --- | --- | --- | --- |
| 6.3 | < 5 | < 5 |  | CC(C)C[C@H](NC(=O)[C@H](Cc1ccc(O)cc1)NC(=O)[C@H](CCCCN)NC(=O)[C@H](CO)NC(=O)[C@H](Cc1ccc(O)cc1)NC(=O)[C@H](CC(=O)O)NC(=O)[C@H](CO)NC(=O)[C@@H](NC(=O)[C@H](Cc1ccccc1)NC(=O)[C@@H](NC(=O)CNC(=O)[C@H](CCC(N)=O)NC(=O)C(C)(C)NC(=O)[C@@H](N)Cc1c[nH]cn1)[C@@H](C)O)[C@@H](C)O)C(=O)N[C@@H](CC(=O)O)C(=O)N[C@@H](C)C(=O)N[C@@H](CCCNC(=N)N)C(=O)N[C@@H](C)C(=O)N[C@@H](C)C(=O)N[C@@H](CCC(N)=O)C(=O)N[C@@H](CC(=O)O)C(=O)N[C@@H](Cc1ccccc1)C(=O)N[C@H](C(=O)N[C@@H](CCC(N)=O)C(=O)N[C@@H](Cc1c[nH]c2ccccc12)C(=O)N[C@@H](CC(C)C)C(=O)N[C@@H](CCS(C)(=O)=O)C(=O)N[C@@H](CCCCNC(=O)COCCOCCNC(=O)COCCOCCNC(=O)CC[C@H](NC(=O)CCCCCCCCCCCCCCCCC(=O)O)C(=O)O)C(=O)N[C@H](C(N)=O)[C@@H](C)O)C(C)C [TP602] (H-H[Aib]QGTFTSDYSKYLDARAAQDFVQWL[Met(O2)]K([AEEA-AEEA-γGlu-C18 diacid])T-NH2) |
| 2.0 | < 5 | < 5 |  | CC(C)C[C@H](NC(=O)[C@H](Cc1ccc(O)cc1)NC(=O)[C@H](CCCCN)NC(=O)[C@H](CO)NC(=O)[C@H](Cc1ccc(O)cc1)NC(=O)[C@H](CC(=O)O)NC(=O)[C@H](CO)NC(=O)[C@@H](NC(=O)[C@H](Cc1ccccc1)NC(=O)[C@@H](NC(=O)CNC(=O)[C@H](CCC(N)=O)NC(=O)C(C)(C)NC(=O)[C@@H](N)Cc1c[nH]cn1)[C@@H](C)O)[C@@H](C)O)C(=O)N[C@@H](CC(=O)O)C(=O)N[C@@H](C)C(=O)N[C@@H](CCCNC(=N)N)C(=O)N[C@@H](C)C(=O)N[C@@H](C)C(=O)N[C@@H](CCCCNC(=O)COCCOCCNC(=O)COCCOCCNC(=O)CC[C@H](NC(=O)CCCCCCCCCCCCCCC(=O)O)C(=O)O)C(=O)N[C@@H](CC(=O)O)C(=O)N[C@@H](Cc1ccccc1)C(=O)N[C@H](C(=O)N[C@@H](CCC(N)=O)C(=O)N[C@@H](Cc1c[nH]c2ccccc12)C(=O)N[C@@H](CC(C)C)C(=O)N[C@@H](CCS(C)(=O)=O)C(=O)N[C@@H](CCC(=O)O)C(=O)N[C@H](C(N)=O)[C@@H](C)O)C(C)C [TP814] (H-H[Aib]QGTFTSDYSKYLDARAAK([AEEA-AEEA-γGlu-C16 diacid])DFVQWL[Met(O2)]ET-NH2; N-terminus assumed) |
